Measurements reported in patent EP0072027A1, “Antiviral compounds” (THE WELLCOME FOUNDATION LIMITED, priority 1981, dated 1983).
Marks after values point to notes of the source that are not given here.

Key:
herpes virus = assay: In vivo activity against herpetic encephalitis, intracerebrally infected mice (Example 17); conditions: for Mean reciprocal survival time: 100 mg/kg oral twice daily for 5 days, around 300 x LD50 intracerebrally, 14 days observation
Protocol: Swiss mice weighing 12-15 g were anaesthetised with ether and inoculated intracerebrally with 0.025 ml of a tissue culture preparation of type herpes virus. The mice were examined daily for sign of herpes encephalitis i.e. cerebral irritation leading to paralysis, coma and death. […] The viscera of the mice were examined for signs of infection with bacteria or other agents and if no abnormalities were found the brains were removed asceptically and ground to a smooth paste. The homogenate was resuspended in 4 ml of tissue culture maintenance medium to each brain, and mixed with glycerol in the ratio 2:1. Mouse brains weigh approximately 400 mg and the preparation thus represented a dilution of 10^-1.
The stocks of virus thus prepared were titrated in mice to determine the LD50 titre by inoculating mice intracerebrally with 10-fold dilutions of the stock preparation of virus and subsquently examined twice daily for signs of infection. The LD50 titre was calculated by the Karber method.
Groups of 5 mice were infected intracerebrally with stock virus diluted to give a dose of around 300 x LD50. The compound under test was administered twice daily as a suspension by the oral route at a dose of 100 mg/kg. The animals were examined twice daily and survival times were recorded to the nearst half-day. Dosing was carried out for 5 days and the total period of observation was 14 days. Survival times were converted to recipocals and the mean survival time was determined for each group L. Bauer, D. J., Brit. J. Exp. Path., 1960, 41, 130).

Herpes simplex type 1 = assay: In vitro plaque reduction in VERO cell cultures (Example 16); format: cell-based; conditions: for IC50: Human alphaherpesvirus 1, Vero, VERO cells
Protocol: 60mm plastic cell culture dishes were seeded with a VERO cell suspension (6 ml of 2 x 10^5 cells/ml) in VERO cell growth medium comprising 5% foetal calf serum, 10% Eagles minimal essential medium, 0.11% sodium bicarbonate,0.25% Crystamycin.
(50,000 units/ml sodium benzyl penicillin B.P. and 50 mg/ml streptomcyin sulphate B.P.). The dishes were gently shaken to ensure the complete dispersion of the cells and then the cultures were incubated at 37°C in an atmosphere of 5% CO2/air overnight to attain confluency. The growth medium was then replaced with 2 ml of virus (Herpes simplex type 1) inoculum in phosphate buffered saline (PBS). The virus concentration was such as to induce the formation of 200-400 plaques/plate. A period of 1 hour was allowed for virus absorption at 37°C in 5% COZair, after which time the plates were drained and overlay medium (8 ml) was added at 42 °C. The overlay medium consisted of 0.6% agarose, 2% foetal calf serum, 10% Eagle's minimal essential medium, 0.11% sodium bicarbonate and 0.25% Crystamycin.
Doubling dilutions in micromolarity of active compound were prepared in the overlay and replicate cultures were fed with the maintenance medium overlay containing a range of concentrations of the compound. Untreated virus control cultures and uninfected cultures were also prepared. The overlay was allowed to solidify at room temperature before the cultures were returned to the incubator at 37°C in 5% CO2/air for 4 days. The cultures were then fixed with 10% formalin in PBS for 30 minutes to 1 hour; the overlay was removed and the cells were stained with 0.05% w/v methyl violet in 20% methanol. The resultant plaques were counted and expressed as a percentage of the plaque count of the untreated virus control cultures. These values were then plotted against the log10 of the compound concentration and the IC50 values representing the amount of the compound required to reduce the plaque count by 50% was read from the resulting dose-response line.

[1] = test system: Equine rhinopneumonitis virus (EHV-1); assay: In vivo activity against equine rhinopneumonitis virus in hamsters (Example 14), intraperitoneal and oral; design: species or system Syrian weanling hamsters
Protocol: Male cream Syrian weanling hamsters, 40-50 g, 21-24 days old, were caged in groups of 5 and given water and food ad lib.
Equine rhinopneumonitis virus (EHV-1), hamster adapted Vaccine Strain 'Pneumabort' was used; the vaccine was diluted 10^-1 in tissue culture fluid and this stock stored in 1 ml aliquots in sealed glass vials at -70°C. On Day 0 hamsters to be infected received 0.2 ml stock vaccine virus, diluted further 2 x 10^-1 in phosphate buffered saline, subcutaneously in the left flank.
9-/(2-Hydroxy-l-hydroxymethylethoxy)methyl/guanine (hereinafter referred to as 759U) and acyclovir were made up as aqueous solutions in sterile distilled water in the concentrations specified below.
Intraperitoneal administration: from Day 0 to Day 4, inclusive, hamsters received 759U or acyclovir in divided twice daily doses in aqueous solution, the concentration of 759U varying as following, namely 5 mg/ml to give a dose rate of 100 or 50 mg/kg/day, 1.2 mg/ml for 20 mg/kg/day, […] for 4 mg/kg/day and 0.036 mg/ml for 2 mg/kg/day. Untreated control hamsters received an equivalent volume of sterile distilled water.
A stock solution of 759U was made in sterile distilled water at 0.304 mg/ml and then diluted in 3-fold steps to 0.101 and 0.034 mg/ml. Hamsters were given medicated drinking water for 5 days commencing 5 hours pre-infection. A control group was supplied with unmedicated water.
Acyclovir was dissolved in sterile distilled water at 2 mg/ml with the addition of a little sodium hydroxide and warming to 42°C to facilitate solution. Hamsters were given medicated drinking water, containing acyclovir at 2 mg/ml, for 5 days commencing 5 hours pre-infection. […] A control group supplied with unmedicated water was set up.

[2] = Experiment 1, plaque count reduced by 50%
[3] = Experiment 2, plaque count reduced by 50%
[4] = Experiment 3, plaque count reduced by 50%
[5] = 50 mg/kg/day intraperitoneal, Day 2, 10 in group
[6] = 50 mg/kg/day intraperitoneal, Day 3, 10 in group
[7] = 50 mg/kg/day intraperitoneal, Day 4, 10 in group
[8] = 50 mg/kg/day intraperitoneal, Day 5, 10 in group
[9] = 50 mg/kg/day intraperitoneal, Day 6, 10 in group
[10] = 50 mg/kg/day intraperitoneal, Day 7, 10 in group
[11] = 100 mg/kg/day intraperitoneal, Day 2, 10 in group
[12] = 100 mg/kg/day intraperitoneal, Day 3, 10 in group
[13] = 100 mg/kg/day intraperitoneal, Day 4, 10 in group
[14] = 100 mg/kg/day intraperitoneal, Day 5, 10 in group
[15] = 100 mg/kg/day intraperitoneal, Day 6, 10 in group
[16] = 100 mg/kg/day intraperitoneal, Day 7, 10 in group

Nc1nc2c(ncn2COC(CO)CO)c(=O)[nH]1 [Example 759U, 9-[(2-hydroxy-1-hydroxymethylethoxy)methyl]guanine]
Mean reciprocal survival time (herpes virus): 0.15 | activity given orally to intracerebrally infected mice compared with acyclovir (herpes virus; same conditions): much greater than acyclovir | activity in vitro against Herpes simplex type I compared with acyclovir (Herpes simplex type 1): greater activity | IC50 (Herpes simplex type 1; [2]): 90 nM | IC50 (Herpes simplex type 1; [3]): 50 nM | IC50 (Herpes simplex type 1; [4]): 36 nM | IC50 (Herpes simplex type 1; Mean of Experiments 1-3): 59 nM | Cumulative mortality ([1]; 2 mg/kg/day intraperitoneal, Day 2, 10 in group): 0 | Cumulative mortality ([1]; 2 mg/kg/day intraperitoneal, Day 3, 10 in group): 0 | Cumulative mortality ([1]; 2 mg/kg/day intraperitoneal, Day 4, 10 in group): 0 | Cumulative mortality ([1]; 2 mg/kg/day intraperitoneal, Day 5, 10 in group): 0 | Cumulative mortality ([1]; 2 mg/kg/day intraperitoneal, Day 6, 10 in group): 0 | Cumulative mortality ([1]; 2 mg/kg/day intraperitoneal, Day 7, 10 in group): 0 | control of virus-induced mortality ([1]; 2 mg/kg/day intraperitoneally): complete control | Cumulative mortality ([1]; 3 mg/kg/day oral (drinking water), Day 2, 10 in group): 0 | Cumulative mortality ([1]; 3 mg/kg/day oral (drinking water), Day 3, 10 in group): 1 | Cumulative mortality ([1]; 3 mg/kg/day oral (drinking water), Day 4, 10 in group): 1 | Cumulative mortality ([1]; 3 mg/kg/day oral (drinking water), Day 5, 10 in group): 1 | Cumulative mortality ([1]; 3 mg/kg/day oral (drinking water), Day 6, 10 in group): 1 | Cumulative mortality ([1]; 3 mg/kg/day oral (drinking water), Day 7, 10 in group): 1 | Cumulative mortality ([1]; 4 mg/kg/day intraperitoneal, Day 2, 10 in group): 0 | Cumulative mortality ([1]; 4 mg/kg/day intraperitoneal, Day 3, 10 in group): 0 | Cumulative mortality ([1]; 4 mg/kg/day intraperitoneal, Day 4, 10 in group): 0 | Cumulative mortality ([1]; 4 mg/kg/day intraperitoneal, Day 5, 10 in group): 0 | Cumulative mortality ([1]; 4 mg/kg/day intraperitoneal, Day 6, 10 in group): 0 | Cumulative mortality ([1]; 4 mg/kg/day intraperitoneal, Day 7, 10 in group): 0 | Cumulative mortality ([1]; 13 mg/kg/day oral (drinking water), Day 2, 10 in group): 0 | Cumulative mortality ([1]; 13 mg/kg/day oral (drinking water), Day 3, 10 in group): 0 | Cumulative mortality ([1]; 13 mg/kg/day oral (drinking water), Day 4, 10 in group): 0 | Cumulative mortality ([1]; 13 mg/kg/day oral (drinking water), Day 5, 10 in group): 0 | Cumulative mortality ([1]; 13 mg/kg/day oral (drinking water), Day 6, 10 in group): 0 | Cumulative mortality ([1]; 13 mg/kg/day oral (drinking water), Day 7, 10 in group): 0 | Cumulative mortality ([1]; 20 mg/kg/day intraperitoneal, Day 2, 10 in group): 0 | Cumulative mortality ([1]; 20 mg/kg/day intraperitoneal, Day 3, 10 in group): 0 | Cumulative mortality ([1]; 20 mg/kg/day intraperitoneal, Day 4, 10 in group): 0 | Cumulative mortality ([1]; 20 mg/kg/day intraperitoneal, Day 5, 10 in group): 0 | Cumulative mortality ([1]; 20 mg/kg/day intraperitoneal, Day 6, 10 in group): 0 | Cumulative mortality ([1]; 20 mg/kg/day intraperitoneal, Day 7, 10 in group): 0 | Cumulative mortality ([1]; 39 mg/kg/day oral (drinking water), Day 2, 10 in group): 0 | Cumulative mortality ([1]; 39 mg/kg/day oral (drinking water), Day 3, 10 in group): 0 | Cumulative mortality ([1]; 39 mg/kg/day oral (drinking water), Day 4, 10 in group): 0 | Cumulative mortality ([1]; 39 mg/kg/day oral (drinking water), Day 5, 10 in group): 0 | Cumulative mortality ([1]; 39 mg/kg/day oral (drinking water), Day 6, 10 in group): 0 | Cumulative mortality ([1]; 39 mg/kg/day oral (drinking water), Day 7, 10 in group): 0 | Cumulative mortality [1, 5]: 0 | Cumulative mortality [1, 6]: 0 | Cumulative mortality [1, 7]: 0 | Cumulative mortality [1, 8]: 0 | Cumulative mortality [1, 9]: 0 | Cumulative mortality [1, 10]: 0 | Cumulative mortality [1, 11]: 0 | Cumulative mortality [1, 12]: 0 | Cumulative mortality [1, 13]: 0 | Cumulative mortality [1, 14]: 0 | Cumulative mortality [1, 15]: 0 | Cumulative mortality [1, 16]: 1* | efficacy against EHV-1 ([1]; orally at 3 mg/kg/day): only limited mortality | efficacy against EHV-1 ([1]; orally at 13 mg/kg/day): completely effective

Nc1nc2c(ncn2COCCO)c(=O)[nH]1 [acyclovir, 9-(2-hydroxyethoxymethyl) guanine, reference compound]
Mean reciprocal survival time (herpes virus): 0.26 | IC50 (Herpes simplex type 1; [2]): 170 nM | IC50 (Herpes simplex type 1; [3]): 75 nM | IC50 (Herpes simplex type 1; [4]): 110 nM | IC50 (Herpes simplex type 1; Mean of Experiments 1-3): 118 nM | Cumulative mortality [1, 5]: 0 | Cumulative mortality [1, 6]: 1 | Cumulative mortality [1, 7]: 2 | Cumulative mortality [1, 8]: 5 | Cumulative mortality [1, 9]: 6 | Cumulative mortality [1, 10]: 6 | Cumulative mortality [1, 11]: 0 | Cumulative mortality [1, 12]: 0 | Cumulative mortality [1, 13]: 1* | Cumulative mortality [1, 14]: 2* | Cumulative mortality [1, 15]: 2* | Cumulative mortality [1, 16]: 3* | Cumulative mortality ([1]; 100 mg/kg/day oral (drinking water 2 mg/ml), Day 2, 12 in group): 0 | Cumulative mortality ([1]; 100 mg/kg/day oral (drinking water 2 mg/ml), Day 3, 12 in group): 2 | Cumulative mortality ([1]; 100 mg/kg/day oral (drinking water 2 mg/ml), Day 4, 12 in group): 5 | Cumulative mortality ([1]; 100 mg/kg/day oral (drinking water 2 mg/ml), Day 5, 12 in group): 7 | Cumulative mortality ([1]; 100 mg/kg/day oral (drinking water 2 mg/ml), Day 6, 12 in group): 8 | efficacy against EHV-1 ([1]; orally at 100 mg/kg/day for 5 days): poor efficacy
